According to patent publication US20060069155A1, “Method for reducing exacerbations associated with COPD” (priority 2000, published 2006):
“Also recorded” adds a separate entry of the source.

What was measured:
[1] = targeted for the treatment of multi-infarct dementia; 'may include'; cited from earlier work
[2] = developed as an antidepressant; cited from earlier work
[3] = tested on: COPD exacerbations in patients with COPD; test: Clinical Study C: placebo-controlled, double-blind 6-month study of Ariflo 15 mg BID in COPD patients; type: in vivo, human; details: for Number of Patients Exacerbation-free / Estimated Percentage Exacerbation-Free (Exacerbation-free Survival Rate): 24 weeks, ITT, 15 mg BID; for Estimated Percentage Exacerbation-Free (Exacerbation-free Survival Rate): Kaplan-Meier estimate
Text: (§1) Acute COPD exacerbations, defined as worsening of COPD symptoms that required changes in treatment including antimicrobial therapy, a short course of oral corticosteroids or other bronchodilator therapy. Exacerbations were categorized to three levels: • Level 1: self-managed by the patient at home by increasing usual medication for COPD. • Level 2: requiring additional treatment prescribed by a family or primary care physician or as a result of a hospital outpatient visit including a visit to the Emergency Room. • Level 3: requiring the patient to be admitted to the hospital for treatment. Clinical trials in COPD patients were carried out to investigate the efficacy of an 15 mg immediate release tablet, BID of Ariflo. […] In each of the studies, patients with COPD entered a 4-week placebo run-in period and were then randomized to receive Ariflo 15 mg twice daily or placebo in a ratio of 2 to 1. Patients were monitored following 1, 2 and 4 weeks of treatment and subsequently at 4-week intervals. Patients were permitted to receive concomitant salbutamol (prn) and/or short acting anticholinergic therapy at a stable dose during these studies. Pulmonary function measurements were performed at each visit (with the exception of Week 1). The St. George's Respiratory Questionnaire (SGRQ) was administered at Baseline, and Weeks 12 and 24 (or at the time of withdrawal). Routine compliance, vital sign, and laboratory assessments were performed at each visit. These studies included frequent ECG assessments and extensive monitoring of patients reporting gastrointestinal adverse experiences of potential clinical concern to address concerns about possible effects of SB 207499 on both cardiovascular and gastrointestinal body systems. 12-lead ECG assessments were conducted at screening, prior to dosing at Baseline, and prior to dosing at each visit during the double-blind treatment period. In addition, 12-lead ECGs were performed 3 hours after the administration of drug on the first and last day of dosing. In a subset of patients, 24-hour Holter ECG monitoring was conducted during Run-in and at Weeks 1 and 20. Orthostatic vital signs and faecal occult blood tests were determined for all patients in order to obtain a general incidence of abnormal assessments in this patient population. Orthostatic vital signs were determined at Screening, Baseline and the end of double-blind treatment. Faecal occult blood tests were performed between Screening and Baseline and between 20 weeks and the end of double-blind treatment (24 weeks).

[4] = tested on: COPD exacerbations in patients with COPD; test: Clinical Study A: placebo-controlled, double-blind 6-month study of Ariflo 15 mg BID in COPD patients; type: in vivo, human; details: for Number of Patients Exacerbation-free / Estimated Percentage Exacerbation-Free (Exacerbation-free Survival Rate): 24 weeks, ITT, 15 mg BID; for Estimated Percentage Exacerbation-Free (Exacerbation-free Survival Rate): Kaplan-Meier estimate
Text: as §1

[5] = tested on: COPD exacerbations in patients with COPD; test: Clinical Study B: placebo-controlled, double-blind study of Ariflo 15 mg BID in COPD patients; type: in vivo, human; details: for Number of Patients Exacerbation-free / Estimated Percentage Exacerbation-Free (Exacerbation-free Survival Rate): 24 weeks, ITT, 15 mg BID; for Estimated Percentage Exacerbation-Free (Exacerbation-free Survival Rate): Kaplan-Meier estimate
Text: as §1, with “studies. Study B included a 2-week, randomised, double-blind, run-out phase to examine the effects of discontinuation of treatment. Patients who received Ariflo during the initial 24 week period, were randomized (1:1 ratio) to Ariflo 15 mg BID or placebo for the run-out phase; patients who received placebo during the initial 24 weeks, continued on placebo during the run-out phase.” for “studies.”

[6] = 15 mg immediate release tablet BID

## CCCCn1c(=O)c2c(ncn2CC(C)=O)n(CCCC)c1=O [denbufylline]
[1]
  side effects: pyrosis, nausea and emesis

## COc1ccc(C2CNC(=O)C2)cc1OC1CCCC1 (stereo not drawn) [rolipram]
[2]
  side effects in clinical studies: psychotropic activity; also recorded: gastrointestinal effects, e.g., pyrosis, nausea and emesis

## COc1ccc([C@]2(C#N)CC[C@@H](C(=O)O)CC2)cc1OC1CCCC1 [SB207499, cis-4-cyano-4-[3-(cyclopentyloxy)-4-methoxyphenyl]cyclohexane-1-carboxylic acid]
[3]; 15 mg BID over 6 months
  affect on exacerbations: marginal
  efficacy in treating COPD: equivocal
[3]; All Exacerbations, of 474 patients
  Number of Patients Exacerbation-free: 299
[3]; All Exacerbations, placebo 56.0
  Estimated Percentage Exacerbation-Free (Exacerbation-free Survival Rate): 58.3%
[3]; Level 2 and 3 Exacerbations
  Number of Patients Exacerbation-free: 354
[3]; Level 2 and 3 Exacerbations, placebo 71.0
  Estimated Percentage Exacerbation-Free (Exacerbation-free Survival Rate): 70.9%
[4]; 15 mg IR tablet BID, P=0.008
  estimated percentages of patients exacerbation-free compared to placebo: significantly greater
[4]; [6]
  incidence of all categories of exacerbations and of more severe exacerbations (Levels 2 and 3) versus placebo: lower incidence
[4]; 15 mg immediate release tablet BID, Kaplan-Meier estimates, P=0.001
  reduction of the risk of an exacerbation requiring treatment by a physician or hospitalization: 45%
[4]; 15 mg immediate release tablet BID, Kaplan-Meier estimates, P=0.002
  reduction of the risk of having an exacerbation relative to placebo: 39%
[4]; All Exacerbations, of 431 patients
  Number of Patients Exacerbation-free: 336
[4]; All Exacerbations, placebo 62.4
  Estimated Percentage Exacerbation-Free (Exacerbation-free Survival Rate): 74.0%
[4]; Level 2 and 3 Exacerbations
  Number of Patients Exacerbation-free: 364
[4]; Level 2 and 3 Exacerbations, placebo 69.7
  Estimated Percentage Exacerbation-Free (Exacerbation-free Survival Rate): 81.7%
[5]; 15 mg IR tablet BID, P=0.004
  estimated percentages of patients exacerbation-free compared to placebo: significantly greater
[5]; [6]
  incidence of all categories of exacerbations and of more severe exacerbations (Levels 2 and 3) versus placebo: lower incidence
[5]; All Exacerbations, of 469 patients
  Number of Patients Exacerbation-free: 318
[5]; All Exacerbations, placebo 51.1
  Estimated Percentage Exacerbation-Free (Exacerbation-free Survival Rate): 63.9%
[5]; Level 2 and 3 Exacerbations
  Number of Patients Exacerbation-free: 367
[5]; Level 2 and 3 Exacerbations, placebo 64.3
  Estimated Percentage Exacerbation-Free (Exacerbation-free Survival Rate): 75.5%
[5]; over 26 weeks, P=0.004
  reduction of the risk of an exacerbation requiring treatment by a physician or hospitalization (Levels 2 and 3): 32%
[5]; over 26 weeks, P=0.005
  reduction of the risk of having an exacerbation relative to placebo: 30%
